Each structure is given as a SMILES string.

Common to all, as to assay type: functional
The test system of assay [1] is Mus musculus. Put plainly: In vivo antitumor activity as percent tumor response at dose of 0.3 mg/kg, 24 hours post injection of SMT-F tumor in DBA/2 mice at day 1-2.
For assay [2], the system named is Mus musculus. As to the kind of experiment: In vivo antitumor activity as percent tumor response at dose of 0.3 mg/kg, 24 hours post injection of SMT-F tumor in DBA/2 mice at day 7.
Assay [3] concerns Mus musculus. As to the kind of experiment: In vivo antitumor activity as percent tumor response at dose of 0.3 mg/kg, 24 hours post injection of SMT-F tumor in DBA/2 mice at day 30.
In assay [4] the test system is Mus musculus. As to the kind of experiment: In vivo antitumor activity as percent tumor response at dose of 5.0 mg/kg, 3 hours post injection of SMT-F tumor in DBA/2 mice at day 30.
The subject of assay [5] is Mus musculus. As to the kind of experiment: In vivo antitumor activity as percent tumor response at dose of 5.0 mg/kg, 3 hours post injection of SMT-F tumor in DBA/2 mice at day 1-2.
Assay [6] has as its system Mus musculus. As to the kind of experiment: In vivo antitumor activity as percent tumor response at dose of 5.0 mg/kg, 3 hours post injection of SMT-F tumor in DBA/2 mice at day 7.
The test system of assay [7] is Mus musculus. As to the kind of experiment: In vivo antitumor activity as percent tumor response at dose of 5.0 mg/kg, 24 hours post injection of SMT-F tumor in DBA/2 mice at day 1-2.
Assay [8] has as its system Mus musculus. Put plainly: In vivo antitumor activity as percent tumor response at dose of 5.0 mg/kg, 24 hours post injection of SMT-F tumor in DBA/2 mice at day 7.
For assay [9], the system named is Mus musculus. As to the kind of experiment: In vivo antitumor activity as percent tumor response at dose of 5.0 mg/kg, 24 hours post injection of SMT-F tumor in DBA/2 mice at day 30.
For assay [10], the system named is Mus musculus. As to the kind of experiment: In vivo antitumor activity as percent tumor response at dose of 2.5 mg/kg, 24 hours post injection of SMT-F tumor in DBA/2 mice at day 1-2.
Assay [11] deals with Mus musculus. Put plainly: In vivo antitumor activity as percent tumor response at dose of 2.5 mg/kg, 24 hours post injection of SMT-F tumor in DBA/2 mice at day 7.
The subject of assay [12] is Mus musculus. Put plainly: In vivo antitumor activity as percent tumor response at dose of 2.5 mg/kg 3h between injection and light treatment in mice at day 7.
The test system of assay [13] is Mus musculus. As to the kind of experiment: In vivo antitumor activity as percent tumor response at dose of 2.5 mg/kg, 3 hours post injection of SMT-F tumor in DBA/2 mice at day 30.
Assay [14] relates to Mus musculus. As to the kind of experiment: In vivo antitumor activity as percent tumor response at dose of 2.5 mg/kg, 24 hours post injection of SMT-F tumor in DBA/2 mice at day 30.
For assay [15], the system named is Mus musculus. Put plainly: In vivo antitumor activity as percent tumor response at dose of 2.5 mg/kg, 3 hours post injection of SMT-F tumor in DBA/2 mice at day 1-2.
Assay [16] relates to Mus musculus. Put plainly: In vivo antitumor activity as percent tumor response at dose of 0.3 mg/kg, 3 hours post injection of SMT-F tumor in DBA/2 mice at day 30.
Assay [17] has as its system Mus musculus. As to the kind of experiment: In vivo antitumor activity as percent tumor response at dose of 0.3 mg/kg, 3 hours post injection of SMT-F tumor in DBA/2 mice at day 1-2.
Assay [18] concerns Mus musculus. As to the kind of experiment: In vivo antitumor activity as percent tumor response at dose of 0.3 mg/kg, 3 hours post injection of SMT-F tumor in DBA/2 mice at day 7.
For assay [19], the system named is Mus musculus. Put plainly: In vivo antitumor activity as percent tumor response at dose of 1.0 mg/kg, 24 hours post injection of SMT-F tumor in DBA/2 mice at day 7.
The subject of assay [20] is Mus musculus. As to the kind of experiment: In vivo antitumor activity as percent tumor response at dose of 1.0 mg/kg, 24 hours post injection of SMT-F tumor in DBA/2 mice at day 1-2.
Assay [21] has as its system Mus musculus. As to the kind of experiment: In vivo antitumor activity as percent tumor response at dose of 1.0 mg/kg, 24 hours post injection of SMT-F tumor in DBA/2 mice at day 30.
Assay [22] has as its system Mus musculus. Put plainly: In vivo antitumor activity as percent tumor response at dose of 0.25 mg/kg, 24 hours post injection of SMT-F tumor in DBA/2 mice at day 30.
For assay [23], the system named is Mus musculus. As to the kind of experiment: In vivo antitumor activity as percent tumor response at dose of 0.25 mg/kg, 24 hours post injection of SMT-F tumor in DBA/2 mice at day 1-2.
Assay [24] has as its system Mus musculus. As to the kind of experiment: In vivo antitumor activity as percent tumor response at dose of 0.25 mg/kg, 24 hours post injection of SMT-F tumor in DBA/2 mice at day 7.

For the compound `CCCCCCOCC1=C(C)c2cc3nc(c4c5[nH]c(cc6[nH]c(cc1n2)c(C)c6CC)c(C)c5C(=O)C4)[C@@H](CCC(=O)OC)[C@@H]3C`, the Response in assay [1] came out at 100%; in assay [2], 33%; in assay [3], 0%.
As for `C=Cc1c(C)c2cc3nc(c4c5nc(cc6[nH]c(cc1[nH]2)c(C)c6CC)C(C)=C5C(=S)C4)[C@@H](CCC(=O)OC)[C@@H]3C`, the Response in [4] is listed as 80%; in assay [5] it was 100%; in assay [6] it was 100%; in [7], 0%; in [8], 0%; in assay [9], 0%.
Consider `CCc1c(C)c2cc3[nH]c(cc4nc(c(CC(=O)OC)c5nc(cc1[nH]2)C(C)=C5C(=O)OC)[C@@H](CCC(=O)OC)[C@@H]4C)c(C)c3C=O`, for which the Response in assay [7], in assay [8] and in [9] was 0% in each case.
Regarding `CCc1c(C)c2cc3[nH]c(cc4nc(c5c6nc(cc1[nH]2)C(C)=C6C(=O)C5)[C@@H](CCC(=O)OC)[C@@H]4C)c(C)c3C=O`, the Response turned out to be 0% in [10]; 0% in assay [11]; 67% in [12]; 0% in assay [13]; 0% in assay [14]; 67% in assay [15].
As for `CCCCCCOC(C)c1c(C)c2cc3nc(c4c5nc(cc6[nH]c(cc1[nH]2)[C@@](C)(O)[C@]6(O)CC)C(C)=C5C(=O)C4)[C@@H](CCC(=O)OC)[C@@H]3C` (stereo partly drawn), the Response in assay [16], in assay [17] and in assay [18] was 0% each time.
Turning to `CCc1c(C)c2cc3[nH]c(cc4nc(c5c6nc(cc1[nH]2)C(C)=C6C(=O)[C@@H]5C(=O)OC)[C@@H](CCC(=O)OC)[C@@H]4C)c(C)c3C=O`, the figures for the Response in [7], in assay [8] and in assay [9] were 80%, 60% and 0%, respectively.
For the compound `CCCCCCOC(C)C1=C(C)c2cc3nc(c(CC(=O)OC)c4[nH]c(cc5[nH]c(cc1n2)c(C)c5CC)c(C)c4C(=O)OC)[C@@H](CCC(=O)OC)[C@@H]3C` (stereo partly drawn), the Response came out at 100% in [1]; 0% in assay [2]; 0% in [3]; 75% in [19]; 100% in assay [20]; 0% in [21].
On to `CCc1c(C)c2cc3nc(c4c5nc(cc6[nH]c(cc1[nH]2)[C@@](C)(O)[C@]6(O)CC)C(C)=C5C(=O)C4)[C@@H](CCC(=O)OC)[C@@H]3C`, for which the Response in assay [16], in [17] and in assay [18] was 0% each time.
In the case of `CCCCCCOC(C)C1=C(C)c2cc3nc(c4c5[nH]c(cc6[nH]c(cc1n2)c(C)c6CC)c(C)c5C(=O)[C@@H]4C(=O)OC)[C@@H](CCC(=O)OC)[C@@H]3C` (stereo partly drawn), the Response in [1] stood at 100%; in assay [2] it was 90%; in assay [3] it was 0%; in [19], 100%; in assay [16], 20%; in [20], 100%. The Response worked out at 100% in assay [17], 100% in assay [18] and 50% in assay [21].
As for `CCCCCCOC(C)C1=C(C)c2cc3nc(c4c5[nH]c(cc6[nH]c(cc1n2)c(C)c6CC)c(C)c5C(=O)C4)[C@@H](CCC(=O)OC)[C@@H]3C` (stereo partly drawn), the Response in assay [1] is 100%; in assay [2], 100%; in assay [3], 50%; in assay [22], 35%; in [23] it was 100%; in [24] it was 85%.
